Test results taken from ChEMBL document CHEMBL1212744, “Relative contributions of active mediated transport and passive diffusion of fluoroquinolones with various lipophilicities in a Calu-3 lung epithelial cell model” (Antimicrob Agents Chemother, 2010).

What was measured:
[1] = Apparent permeability across apical to basolateral side in human Calu3 cells
[2] = Apparent permeability across basolateral to apical side in human Calu3 cells
[3] = Distribution coefficient, log D of the compound; conditions: octanol/water
[4] = Efflux ratio of apparent permeability across basolateral to apical side over apical to basolateral side in human Calu3 cells

| SMILES | Papp A→B [1] [×10⁻⁶ cm/s] | Papp B→A [2] [×10⁻⁶ cm/s] | logD [3] | efflux ratio [4] |
| --- | --- | --- | --- | --- |
| COc1c(N2C[C@@H]3CCCN[C@@H]3C2)c(F)cc2c(=O)c(C(=O)O)cn(C3CC3)c12 [MOXIFLOXACIN] | 5 | 10.4 | – | – |
| C[C@H]1COc2c(N3CCN(C)CC3)c(F)cc3c(=O)c(C(=O)O)cn1c23.C[C@H]1COc2c(N3CCN(C)CC3)c(F)cc3c(=O)c(C(=O)O)cn1c23.O [LEVOFLOXACIN] | – | – | -0.41 | – |
| CCn1cc(C(=O)O)c(=O)c2cc(F)c(N3CCNCC3)cc21 [NORFLOXACIN] | 0.6 | 2 | -1.16 | 3.3 |
| Cc1c(F)c(N2CCNC(C)C2)cc2c1c(=O)c(C(=O)O)cn2C1CC1 (stereo unspecified) [GREPAFLOXACIN] | 3.1 | 11.8 | 0.03 | 3.8 |
